# Entries after “also recorded” stand apart in the source; their conditions may differ.
# Columns and labels:
# [1] = murine PK; conditions: mouse, in vivo
# Protocol: Murine PK was conducted by WuXi AppTec (Shanghai, China). C57BL/6 male mice of age 7-9 weeks were obtained from SLAC Laboratory Animal Co (Shanghai, China). Mice were fasted for 12 h prior to compound administration. Oral gavage was used for PO dosing. For IV dosing, compound was administered by tail vein injection. For compound concentration determination, 25 μL of blood was collected from the submandibular or saphenous vein and processed for plasma. Plasma concentration of compound was determined by LC-MS/MS.
# [2] = system: estrogenic activity; assay: assay for estrogenic activity; assay type: cell-based; conditions: false-positive counter assay
# [3] = molecular target: T1, HNF4α (Homo sapiens, UniProt P41235); assay: T6PNE insulin promoter assay (human insulin promoter-GFP transgene); assay type: cell-based; set-up: endogenous in cells; host or cells: T6PNE cells; conditions: T6PNE cells; for insulin promoter activity / HNF4α activation: GFP-positive cells relative to DMSO; for dose responsiveness in the INS promoter assay: multiple doses
# T1 sequence (P41235 1-474): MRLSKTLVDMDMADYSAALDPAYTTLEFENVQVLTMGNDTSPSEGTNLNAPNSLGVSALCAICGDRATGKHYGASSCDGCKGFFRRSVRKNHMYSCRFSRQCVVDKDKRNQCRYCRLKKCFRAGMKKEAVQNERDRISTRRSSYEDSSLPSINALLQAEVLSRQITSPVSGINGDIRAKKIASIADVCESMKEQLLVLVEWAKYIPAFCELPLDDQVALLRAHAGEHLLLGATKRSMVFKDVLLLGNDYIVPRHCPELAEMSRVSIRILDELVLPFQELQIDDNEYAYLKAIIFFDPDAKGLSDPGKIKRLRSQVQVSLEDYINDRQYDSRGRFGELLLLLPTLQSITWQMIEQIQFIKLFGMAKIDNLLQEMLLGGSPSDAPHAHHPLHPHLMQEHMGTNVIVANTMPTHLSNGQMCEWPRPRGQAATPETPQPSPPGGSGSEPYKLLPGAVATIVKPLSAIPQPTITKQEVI
# Protocol: The T6PNE insulin promoter assay has been described previously and was performed here with slight modifications as follows: T6PNE cells were seeded at 200 cells per well in 384-well tissue culture plates (Greiner Bio-One) in the presence of 0.5 μM tamoxifen. Compounds described herein in DMSO were dispensed with an Echo 555 Acoustic Liquid Handler (Beckman Coulter). Three days after compound addition, cells were fixed in 4% paraformaldehyde (USBio) for 15 min and stained with DAPI (0.167 μg/ml, Invitrogen). Blue (DAPI) and green (GFP) channels were imaged using a Celigo imaging cytometer (Nexcelom Bioscience). The number of GFPpositive cells was normalized to the DAPI-positive cell number and fold change calculated relative to the DMSO control.
# T6PNE cells were maintained in RPMI (5.5mM glucose, Corning) supplemented with 10% fetal bovine serum (FBS, Sigma-Aldrich) and 1% penicillin-streptomycin (pen-strep, Gibco). Cells were maintained in 5% CO2 at 37° C. For the insulin promoter assay, 0.5 μM tamoxifen (Sigma-Aldrich) was added to T6PNE cell culture media. HepG2 or HeLa cells were cultured in DMEM (high glucose, Corning) supplemented with 10% FBS and 1% pen-strep and maintained at 5% CO2, 37° C.
# [4] = molecular target: T2, PPARγ receptor (Homo sapiens, UniProt P37231); assay: assay for PPARγ agonist activity; assay type: cell-based; conditions: false-positive counter assay
# T2 sequence (P37231 1-505): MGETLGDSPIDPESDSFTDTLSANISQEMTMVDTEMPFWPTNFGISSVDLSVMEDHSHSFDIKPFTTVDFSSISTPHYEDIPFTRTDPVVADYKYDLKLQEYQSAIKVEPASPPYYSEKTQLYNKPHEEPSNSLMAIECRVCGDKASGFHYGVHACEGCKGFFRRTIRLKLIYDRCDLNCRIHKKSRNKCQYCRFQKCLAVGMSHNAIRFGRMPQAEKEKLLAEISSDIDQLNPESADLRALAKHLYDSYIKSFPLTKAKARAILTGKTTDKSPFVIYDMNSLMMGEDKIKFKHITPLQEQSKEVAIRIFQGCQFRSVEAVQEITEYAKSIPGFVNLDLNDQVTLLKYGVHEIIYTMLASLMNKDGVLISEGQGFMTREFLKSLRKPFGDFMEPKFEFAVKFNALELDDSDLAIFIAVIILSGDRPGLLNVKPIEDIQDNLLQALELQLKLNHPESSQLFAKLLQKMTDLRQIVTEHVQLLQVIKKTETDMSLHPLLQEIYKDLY
# [5] = system: CYP26A1 mRNA; assay: CYP26a1 mRNA in primary human hepatocytes; assay type: cell-based; conditions: high fat media, 5, 15, 40 µM, Day 4 to Day 10
# Protocol: (§1) Experiments with primary human hepatocytes were performed by CN-Bio (Cambridge, UK). Primary human hepatocytes (PHHs), human Kupffer cells (HKs) and human stellate cells (HSCs) were seeded onto CN-Bio's PhysioMimix LC12 MPS culture plates at 6×10^5 cells for PHHs and 6×10^4 cells for HKs and HSCs in 1.6 ml of CN-Bio's HEP-lean media with 5% FCS. Throughout the experiment the cells were maintained at a flow rate of 1 μl/s. After 24 h (Day 1) of seeding, the media was changed to HEP-lean media and the cells were incubated until day 4 to allow the cells to form microtissues. At day 4 post seeding, media was changed to HEP-fat media and treated with DMSO or NCT (5, 15, 40 μM). Media was replaced on days 6 and 8. Cells were harvested on day 10 for RNA extraction. Data are presented as mean ±SEM of three or more samples as indicated. Statistical significance was assessed using Student's t-test, ANOVA or R^2 coefficient of correlation.
# [6] = system: HNF4a mRNA; assay: HNF4a mRNA in primary human hepatocytes; assay type: cell-based; conditions: high fat media, 5, 15, 40 µM, Day 4 to Day 10
# Protocol: as §1
# [7] = system: SPNS2 mRNA; assay: SPNS2 qPCR in mouse pancreas; assay type: in vivo
# Protocol: (§2) Quantitative PCR (Q-PCR) from in vitro cell culture experiments used total RNA purified using RNeasy Kits (Qiagen). For liver tissue samples, total RNA was isolated using Trizol (Invitrogen) and prepared for RNAseq (mouse liver DMSO and NCT, N=3). cDNA was amplified using 3 μg of total RNA using qScript cDNA SuperMix (Quanta BioSciences, Beverly, Mass., USA). QPCR analysis was performed using SYBR® Select Master Mix (Applied Biosystems) and ABI 7900HT (Applied Biosystems, Thermo Fisher Scientific). The Ct values of mRNA expression were then normalized to the 18 s rRNA values and are expressed as fold change over samples from mice fed normal chow for in vivo experiments or DMSO controls for cell culture experiments.
# [8] = system: SPNS2 mRNA; assay: SPNS2 qPCR in mouse liver; assay type: in vivo
# Protocol: as §2
SMILES,oral bioavailability [1],estrogenic activity [2],insulin promoter activity / HNF4α activation [3],dose responsiveness in the INS promoter assay [3],PPARγ receptor agonist activity [4],CYP26a1 mRNA [5],HNF4a mRNA [6],SPNS2 expression in mouse pancreas [7],SPNS2 expression in mouse liver [8]
"COc1cc(/C=C/C(=O)NCCc2ccc(O)cc2)ccc1O [NFT, N-trans feruloyltyramine]",poor oral bioavailability,no estrogenic,more potent activators; also recorded: approximately as active as alverine; also recorded: much more potent,exhibited dose responsiveness,no estrogenic or PPARγ receptor agonist activity,–,–,–,–
"O=C(/C=C/c1ccc(O)c(O)c1)NCCc1ccc(O)cc1 [NCT, N-trans-caffeoyltyramine]",poor oral bioavailability,no estrogenic,more potent activators; also recorded: strongest inducer of insulin promoter activity; also recorded: much more potent,exhibited dose responsiveness,no estrogenic or PPARγ receptor agonist activity,induced CYP26a1; also recorded: significantly induced,significantly induced,induced SPNS2 expression,did not induce a change in SPNS2 expression; also recorded: not mouse liver
